Measured values: US20120177606A1, “LACTIC ACID BACTERIUM FOR INHIBITING PRODUCTION OF GASTRIC ACID AND GASTRIN” (SNOWDEN KABUSHIKIKAISHA, priority 2011, published 2012)
Entries after “also recorded” stand apart in the source; their conditions may differ.

System: gastrin production
Experiment: Side effects of continuous PPI administration (stomach weight ratio, gastrin-positive cells) and alleviation by lived No. 1088
Format: in vivo
Settings: PBS-administered mice, Omeprazole 200 μg subcutaneously every other day for 4 or 8 weeks, vs no PPI
Protocol: Six groups of mice were prepared, each containing five 4-week old GF-Balb/c male mice. Three of the groups were administered orally with a suspension prepared by suspending 1×10^9 CFU of lived No. 1088 in PBS, and the remaining three groups were administered orally with an equal volume of PBS.
When the mice reached 8 weeks of age, a treatment was started for one group of the No. 1088-administered mice and one group of the PBS-administered mice in which the mice were administered subcutaneously every other day with a solution prepared by dissolving 200 μg of the PPI Omeprazole (AstraZeneca Ltd.) in 200 μL of PBS (8 weeks of continuous PPI administration). […]
Upon reaching 16 weeks of age, the mice of each group were killed, and following measurement of the bodyweight, the stomach was extracted from each mouse, the stomach contents (feed and the like) were removed by washing with PBS, and the stomach weight was measured. […]
The stained tissue sections were subjected to observation and image capture using a fluorescence microscope BZ-9000. […]
Using the bodyweights and stomach weights measured upon extraction of the stomachs from the samples of each group, the ratio (%) of stomach weight to bodyweight was calculated for each group. […]

With `COc1ccc2[nH]c([S+]([O-])Cc3ncc(C)c(OC)c3C)nc2c1` (centres unmarked) [PPI, Omeprazole] as the compound, how does the “number of gastrin-producing cells” value read?
The value was “increased; also recorded: significant increases”.

What about the “stomach weight ratio (stomach weight to bodyweight)” value of the same compound?
The value was “significant increases”.
